Measured values as given in PMC3434972 (Bioorganic & medicinal chemistry letters, 2011).
Numbering of substitutions follows the chain as printed. Like-named read-outs stand apart in the source and are kept apart here.

How the values were obtained:
hM1 [1] = biological target: T1, hM1 (Homo sapiens, UniProt P11229); test: hM1 antagonist calcium mobilization assay; type: cell-based; details: for fold loss in potency/activity relative to ML012: hM1, versus ML012; for hM1 antagonist activity in words: highest concentration tested 30 μM
T1 sequence (P11229 1-460): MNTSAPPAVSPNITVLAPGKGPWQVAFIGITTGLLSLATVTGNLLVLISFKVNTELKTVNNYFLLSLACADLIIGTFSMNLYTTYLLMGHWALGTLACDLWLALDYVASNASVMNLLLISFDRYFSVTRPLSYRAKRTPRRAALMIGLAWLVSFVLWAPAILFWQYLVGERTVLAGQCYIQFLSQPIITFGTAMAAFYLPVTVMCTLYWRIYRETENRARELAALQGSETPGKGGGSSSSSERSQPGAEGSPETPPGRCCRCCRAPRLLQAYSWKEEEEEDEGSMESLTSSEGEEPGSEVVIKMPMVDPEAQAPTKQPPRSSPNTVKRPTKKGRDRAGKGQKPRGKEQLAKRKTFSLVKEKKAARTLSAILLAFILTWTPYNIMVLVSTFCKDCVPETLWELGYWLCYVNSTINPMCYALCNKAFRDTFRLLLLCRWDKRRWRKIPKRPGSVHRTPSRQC

[2] = rat pharmacokinetics and CNS exposure; type: in vivo; details: dosed orally at 10 mg/kg
rM1 = biological target: T2, rM1 (Rattus norvegicus, UniProt P08482); test: rat M1 antagonist calcium mobilization assay; type: cell-based
T2 sequence (P08482 1-460): T1 sequence (P11229 1-460) with A5V, T254S, P309S, R320K, A337G, I413V

[3] = in vitro DMPK prediction of clearance; type: in vitro ADME
rat M1–5 receptors = test: selectivity across the rat mAChRs, calcium mobilization assay; type: cell-based; details: Figure 4
hM1 [4] = biological target: T1, hM1; details: read-out: IC50 for ML012 previously reported; cited from earlier work
contextual freezing = details: at doses that reduced seizures; cited from earlier work
[5] = tested on: pilocarpine-induced seizures; details: rodent models; cited from earlier work

Q: For O=C(CCNS(=O)(=O)c1cccc2nsnc12)N1CCN(c2ccccn2)CC1 [Compound 6d], which “fold loss in potency/activity relative to ML012” value (hM1 [1]) is on record?
A: roughly 14 fold

Q: Which “fold loss in potency/activity relative to ML012” value (hM1 [1]) does the source give for O=S(=O)(NCCCN1CCN(c2ccncc2)CC1)c1cccc2nsnc12 [Compound 7] here?
A: greater than 14 fold

Q: For O=C(C(F)CNS(=O)(=O)c1cccc2nonc12)N1CCN(c2ccncc2)CC1 (stereo not shown) [Compound 9], which “fold decrease in potency relative to 13b” value (hM1 [1]; hM1, versus 13b) is on record?
A: roughly 2 fold

Q: For C[C@H](CC(=O)N1CCN(c2ccncc2)CC1)NS(=O)(=O)c1cccc2nonc12 [Compound 10], which “hM1 antagonist activity in words” value (hM1 [1]) is on record?
A: completely inactive

Q: With CN(CCC(=O)N1CCN(c2ccncc2)CC1)S(=O)(=O)c1cccc2nsnc12 [Compound 12] as the compound, how does the “fold loss in potency/activity relative to ML012” value (hM1 [1]) read?
A: greater than 14 fold

Q: With O=C(CCNS(=O)(=O)c1cccc2nonc12)N1CCN(c2ccc(Br)cn2)CC1 [Compound 13a] as the compound, how does the “fold decrease in activity relative to sulfur analog 6j” value (hM1 [1]; hM1, versus 6j) read?
A: 3 fold

Q: Which IC50 (hM1 [1]) does the source give for O=C(CCNS(=O)(=O)c1cccc2nonc12)N1CCN(c2ccncc2)CC1 [Compound 13b] here?
A: 4.5 µM

Q: And the “fold loss in potency/activity relative to ML012” value (hM1 [1])?
A: 4 fold

Q: For O=C(CCNS(=O)(=O)c1cccc2ccccc12)N1CCN(c2ccc(Br)cn2)CC1 [Compound 13i], which “hM1 antagonist activity in words” value (hM1 [1]) is on record?
A: complete loss of activity

Q: Which “hM1 antagonist activity in words” value (hM1 [1]) does the source give for O=C(CCNS(=O)(=O)c1cccc2scnc12)N1CCN(c2ccncc2)CC1 [Compound 13j] here?
A: inactive

Q: Which “CNS concentrations / CNS exposure” value [2] does the source give for O=C(CCNS(=O)(=O)c1cccc2ncccc12)N1CCN(c2ccncc2)CC1 [Compound 13l] here?
A: undetectable

Q: What about the EC50 (rM1) of the same compound?
A: 0.18 µM

Q: And the “in vitro DMPK prediction of clearance” value [3]?
A: high clearance

Q: And the “selectivity for the M1 receptor over the M2–5 subtypes” value (rat M1–5 receptors)?
A: very high selectivity

Q: Which results are given for O=C(CCNS(=O)(=O)c1cccc2nsnc12)N1CCN(c2ccncc2)CC1 [ML012]?
A: IC50 (hM1 [4]): 0.132 µM; EC50 (rM1): 0.24 µM; deficits in contextual freezing (contextual freezing): did not induce deficits in contextual freezing; selectivity for the M1 receptor over the M2–5 subtypes (rat M1–5 receptors): selectively antagonize the M1 mAChR relative to the M2–5 mAChRs; effect on pilocarpine-induced seizures [5]: reduced pilocarpine-induced seizures
